In article PMC10814857, “Functional Classification and Interaction Selectivity Landscape of the Human SH3 Domain Superfamily” (Cells, 2024) one finds Kd data, which are given here for two molecules.

Molecules are shown by their SMILES. Peptide text beside a SMILES is read from it.

Common to all, as to assay: Fluorescence polarization SH3 domain-PRP binding
In assay [1] the target is T1, ITSN1-4 SH3 domain (aa 1070-1138) (Homo sapiens, UniProt Q15811).
T1 construct: 1070-1138; GST (N); made in house; host or cells: Escherichia coli CodonPlus, Rosetta, BL21(DE3)
T1 sequence (Q15811 1070-1138): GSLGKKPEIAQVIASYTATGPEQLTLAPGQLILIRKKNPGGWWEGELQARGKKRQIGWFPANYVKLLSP
The conditions noted are these: FP, 0.2 µM fluorescein-labeled peptide, SH3 domain 0-200 µM, Tris/HCl pH 7.5, 25 °C, quadratic fit. The method, then:
(§1) The interaction between fluorescein-labeled proline-rich peptides (0.2 µM) and increasing concentrations of SH3 domains (ranging from 0 to 200 µM) was measured in a buffer (containing 30 mM Tris/HCl (pH 7.5), 5 mM MgCl2, and 3 mM DTT at 25 °C) in a total volume of 200 µL using a Fluoromax 4 fluorimeter in polarization mode and a quartz glass fluorescence cuvette (Hellma Ultra-Micro Cuvette 105.250-QS, Thermo Fisher Scientific, Waltham, MA USA). Excitation was performed at 470 nm and emission was measured at 560 nm. Dissociation constants (Kd) were determined by fitting the concentration-dependent binding curve to a quadratic ligand binding equation.
(§2) Fluorescence polarization measurements were performed to determine the binding affinities of SH3 domain–PRP interaction pairs from the dot blot analysis. SH3 proteins were titrated at increasing concentrations against fluorescent PRPs, which were kept at a constant concentration of 0.2 µM. GRB2-2^W193K, which is defective in the binding of PRPs such as RP1, was used as a negative control as previously described. […] The resulting data (Figure S6) allowed the evaluation of equilibrium dissociation constants (Kd) for 45 interactions between the SH3 domains and the PRPs (Figure 2B; Table S6).
(§3) Figure S6. Interactions of the SH3 domains with fluorescent PRPs measured by fluorescence polarization.
(§4) Fluorescent peptides (0.2 µM) were titrated with increasing concentrations of the corresponding SH3 domains.
(§5) GRB2-2W193K, defective in the binding of PRPs such as RP1, was used as a negative control as previously described. The x-axis represents SH3 domain concentrations as GST fusion proteins in µM, while the y-axis represents fluorescence polarization. The equilibrium dissociation constants (Kd) for the respective measurements were determined by fitting the titration curves to a quadratic ligand-binding equation (solid lines). All Kd values are […]
(§6) Error bars are derived from the fitting errors.

Assay [2] has as its target T2, ITSN1-5 SH3 domain (aa 1155-1214) (Homo sapiens, UniProt Q15811).
T2 construct: 1155-1214; GST (N); made in house; host or cells: Escherichia coli CodonPlus, Rosetta, BL21(DE3)
T2 sequence (Q15811 1155-1214): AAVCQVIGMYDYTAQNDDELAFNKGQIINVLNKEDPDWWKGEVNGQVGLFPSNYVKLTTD
The note with it: FP, 0.2 µM fluorescein-labeled peptide, SH3 domain 0-200 µM, Tris/HCl pH 7.5, 25 °C, quadratic fit. On the procedure:
as §1, §2, §3, §4, §5, §6

The target in assay [3] is T3, NCK1-1 SH3 domain (aa 2-61) (Homo sapiens, UniProt P16333).
T3 construct: 2-61; GST (N); made in house; host or cells: Escherichia coli CodonPlus, Rosetta, BL21(DE3)
The note with it: FP, 0.2 µM fluorescein-labeled peptide, SH3 domain 0-200 µM, Tris/HCl pH 7.5, 25 °C, quadratic fit, read-out: Kd. On the procedure: as §1, §2, §3, §4, §5, §6

For assay [4], the target named is T4, NCK1-2 SH3 domain (aa 106-165) (Homo sapiens, UniProt P16333).
T4 construct: 106-165; GST (N); made in house; host or cells: Escherichia coli CodonPlus, Rosetta, BL21(DE3)
The conditions noted are these: FP, 0.2 µM fluorescein-labeled peptide, SH3 domain 0-200 µM, Tris/HCl pH 7.5, 25 °C, quadratic fit, read-out: Kd. The method, then: as §1, §2, §3, §4, §5, §6

Assay [5] concerns the target T5, NCK1-3 SH3 domain (aa 190–252) (Homo sapiens, UniProt P16333).
T5 construct: 190–252; GST (N); made in house; host or cells: Escherichia coli CodonPlus, Rosetta, BL21(DE3)
The conditions noted are these: NCK1-3 (wt); FP, 0.2 µM fluorescein-labeled peptide, SH3 domain 0-200 µM, Tris/HCl pH 7.5, 25 °C, quadratic fit; read-out: Kd. On the procedure:
as §1, §2, §3, §4, §5, §6

The next assay concerns the target T6, NPHP1 SH3 domain (Homo sapiens, UniProt O15259).
T6 construct: GST (N); made in house; host or cells: Escherichia coli CodonPlus, Rosetta, BL21(DE3)
T6 sequence (O15259 152-212 limits assumed): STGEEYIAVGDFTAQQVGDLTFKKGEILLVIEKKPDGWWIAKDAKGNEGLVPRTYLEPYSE
The conditions noted are these: FP, 0.2 µM fluorescein-labeled peptide, SH3 domain 0-200 µM, Tris/HCl pH 7.5, 25 °C, quadratic fit. On the procedure: as §1, §2, §3, §4, §5, §6

In assay [6] the target is T7, RASA1 SH3 domain (aa 279–341) (Homo sapiens, UniProt P20936).
T7 construct: 279–341; GST (N); made in house; host or cells: Escherichia coli CodonPlus, Rosetta, BL21(DE3)
T7 sequence (P20936 279-341): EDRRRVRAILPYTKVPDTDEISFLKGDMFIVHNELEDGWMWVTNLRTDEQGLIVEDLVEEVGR
The note with it: FP, 0.2 µM fluorescein-labeled peptide, SH3 domain 0-200 µM, Tris/HCl pH 7.5, 25 °C, quadratic fit. On the procedure:
as §1, §2, §3, §4, §5, §6

In assay [7] the target is T8, RIMBP3B-1 SH3 domain (aa 832-899) (Homo sapiens, UniProt A6NNM3).
T8 construct: 832-899; GST (N); made in house; host or cells: Escherichia coli CodonPlus, Rosetta, BL21(DE3)
T8 sequence (A6NNM3 832-899): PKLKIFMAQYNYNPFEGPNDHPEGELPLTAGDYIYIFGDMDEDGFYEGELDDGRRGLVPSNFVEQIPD
The conditions noted are these: FP, 0.2 µM fluorescein-labeled peptide, SH3 domain 0-200 µM, Tris/HCl pH 7.5, 25 °C, quadratic fit. On the procedure:
as §1, §2, §3, §4, §5, §6

Assay [8] addresses T9, SH3GLB1 SH3 domain (aa 305-365) (Homo sapiens, UniProt Q9Y371).
T9 construct: 305-365; GST (N); made in house; host or cells: Escherichia coli CodonPlus, Rosetta, BL21(DE3)
T9 sequence (Q9Y371 305-365): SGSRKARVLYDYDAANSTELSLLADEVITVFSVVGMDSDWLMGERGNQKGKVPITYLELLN
The conditions noted are these: FP, 0.2 µM fluorescein-labeled peptide, SH3 domain 0-200 µM, Tris/HCl pH 7.5, 25 °C, quadratic fit. The method, then: as §1, §2, §3, §4, §5, §6

For assay [9], the target named is T10, SNX9 SH3 domain (aa 1-62) (Homo sapiens, UniProt Q9Y5X1).
T10 construct: 1-62; GST (N); made in house; host or cells: Escherichia coli CodonPlus, Rosetta, BL21(DE3)
The note with it: FP, 0.2 µM fluorescein-labeled peptide, SH3 domain 0-200 µM, Tris/HCl pH 7.5, 25 °C, quadratic fit. On the procedure:
as §1, §2, §3, §4, §5, §6

Assay [10] has as its target T11, SORBS1-1 SH3 domain (aa 793-852) (Homo sapiens, UniProt Q9BX66).
T11 construct: 793-852; GST (N); made in house; host or cells: Escherichia coli CodonPlus, Rosetta, BL21(DE3)
T11 sequence (Q9BX66 793-852): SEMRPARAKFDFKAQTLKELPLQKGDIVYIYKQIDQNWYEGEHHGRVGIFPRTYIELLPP
The conditions noted are these: FP, 0.2 µM fluorescein-labeled peptide, SH3 domain 0-200 µM, Tris/HCl pH 7.5, 25 °C, quadratic fit. On the procedure:
as §1, §2, §3, §4, §5, §6

Assay [11] has as its target T12, SRC SH3 domain (aa 77-140) (Homo sapiens, UniProt P12931).
T12 construct: 77-140; GST (N); made in house; host or cells: Escherichia coli CodonPlus, Rosetta, BL21(DE3)
The conditions noted are these: FP, 0.2 µM fluorescein-labeled peptide, SH3 domain 0-200 µM, Tris/HCl pH 7.5, 25 °C, quadratic fit. On the procedure:
as §1, §2, §3, §4, §5, §6

T12 sequence (P12931 77-140 limits assumed): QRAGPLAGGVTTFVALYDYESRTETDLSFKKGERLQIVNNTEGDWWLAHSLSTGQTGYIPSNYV
T10 sequence (Q9Y5X1 1-62): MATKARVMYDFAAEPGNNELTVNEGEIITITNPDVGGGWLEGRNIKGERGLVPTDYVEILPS

`CC(C)C[C@H](NC(=O)[C@@H](NC(=O)[C@@H](N)C(C)C)[C@@H](C)O)C(=O)N1CCC[C@H]1C(=O)N[C@@H](Cc1c[nH]cn1)C(=O)NCC(=O)N1CCC[C@H]1C(=O)N[C@@H](CCCNC(=N)N)C(=O)N[C@@H](CO)C(=O)N[C@@H](C)C(=O)O` [Peptide P2] (H-VTLPHGPRSA-OH): the Kd (in [1]; in [2]; in assay [3]; in assay [4]; in assay [5]; at NPHP1 SH3 domain) was above 200 µM throughout. Besides, the equilibrium dissociation constant (Kd) in assay [6] was above 200 µM; in assay [7], 21 µM; in assay [8] it was above 200 µM; in assay [9] it was above 200 µM; in assay [10], above 200 µM; in assay [11] it was above 200 µM.

Turning to `CC(C)[C@H](NC(=O)[C@@H]1CCCN1C(=O)[C@@H]1CCCN1C(=O)[C@H](C)NC(=O)[C@H](CCC(=O)O)NC(=O)[C@H](CS)NC(=O)[C@@H](N)CCCNC(=N)N)C(=O)N1CCC[C@H]1C(=O)N1CCC[C@H]1C(=O)N[C@@H](CCCNC(=N)N)C(=O)N[C@@H](CCCNC(=N)N)C(=O)N[C@@H](CCC(=O)O)C(=O)N[C@@H](CCCNC(=N)N)C(=O)NCC(=O)O` [RP2, reference compound] (H-RCEAPPVPPRRERG-OH), the Kd in assay [1] is above 200 µM; in [2], 23 µM; in [3], above 200 µM; in assay [4], 1 µM; in [5], 2.5 µM; at NPHP1 SH3 domain, above 200 µM. The Kd in assay [6], in assay [7], in assay [8], in assay [9], in assay [10] and in assay [11] was above 200 µM each time.
